“And” between values parts separate entries of the source, which are not always exact repeats. Identical values can stand only once.
Experiment: molar heat capacity at saturation pressure
Details: Crystal, Vacuum adiabatic calorimetry

CCCCn1cc[n+](C)c1.O=S(=O)([O-])C(F)(F)F [1-butyl-3-methylimidazolium trifluoromethanesulfonate]
Details	molar heat capacity
5.202 K	1.664 J/K/mol
5.437 K	1.901 J/K/mol
5.715 K	2.221 J/K/mol
5.999 K	2.57 J/K/mol
6.317 K	2.999 J/K/mol
6.671 K	3.523 J/K/mol
7.032 K	4.097 J/K/mol
7.395 K	4.732 J/K/mol
7.763 K	5.393 J/K/mol
8.135 K	6.123 J/K/mol
8.512 K	6.893 J/K/mol
8.894 K	7.698 J/K/mol
9.277 K	8.558 J/K/mol
9.664 K	9.444 J/K/mol
10.05 K	10.36 J/K/mol
10.55 K	11.59 J/K/mol
11.16 K	13.11 J/K/mol
11.77 K	14.7 J/K/mol
12.38 K	16.35 J/K/mol
13 K	18.04 J/K/mol
13.62 K	19.77 J/K/mol
14.25 K	21.58 J/K/mol
14.88 K	23.41 J/K/mol
15.62 K	25.59 J/K/mol
16.48 K	28.21 J/K/mol
17.34 K	30.75 J/K/mol
18.21 K	33.27 J/K/mol
19.07 K	35.79 J/K/mol
19.94 K	38.35 J/K/mol
21.15 K	41.92 J/K/mol
22.72 K	46.46 J/K/mol
24.29 K	51.02 J/K/mol
25.87 K	55.46 J/K/mol
27.45 K	59.71 J/K/mol
28.86 K	63.39 J/K/mol
30.34 K	67.25 J/K/mol
32.09 K	71.61 J/K/mol
34 K	76.13 J/K/mol
35.92 K	80.4 J/K/mol
37.84 K	84.48 J/K/mol
39.76 K	88.4 J/K/mol
41.78 K	92.42 J/K/mol
43.9 K	96.53 J/K/mol
46.01 K	100.5 J/K/mol
48.13 K	104.3 J/K/mol
50.25 K	108 J/K/mol
52.38 K	111.5 J/K/mol
54.5 K	114.9 J/K/mol
56.63 K	118.1 J/K/mol
58.75 K	121.2 J/K/mol
60.89 K	124.2 J/K/mol
63.03 K	127.2 J/K/mol
65.17 K	130.1 J/K/mol
67.3 K	133 J/K/mol
69.44 K	135.8 J/K/mol
71.69 K	138.7 J/K/mol
74.03 K	141.6 J/K/mol
76.39 K	144.5 J/K/mol
78.69 K	147.6 J/K/mol and 147.7 J/K/mol
78.74 K	147.4 J/K/mol
80.59 K	149.7 J/K/mol
80.61 K	149.7 J/K/mol
81.1 K	150.1 J/K/mol
82.36 K	151.6 J/K/mol
82.4 K	151.6 J/K/mol
83.47 K	152.9 J/K/mol
84.13 K	153.6 J/K/mol
84.19 K	153.7 J/K/mol
85.92 K	155.7 J/K/mol
86 K	155.7 J/K/mol
87.73 K	157.6 J/K/mol
87.81 K	157.6 J/K/mol
89.54 K	159.5 J/K/mol
89.64 K	159.6 J/K/mol
91.35 K	161.5 J/K/mol
91.48 K	161.6 J/K/mol
93.18 K	163.4 J/K/mol
93.33 K	163.6 J/K/mol
95.02 K	165.5 J/K/mol
95.19 K	165.6 J/K/mol
96.87 K	167.3 J/K/mol
97.05 K	167.5 J/K/mol
98.72 K	169.2 J/K/mol
98.92 K	169.4 J/K/mol
100.59 K	171.1 J/K/mol
100.8 K	171.4 J/K/mol
102.64 K	173.1 J/K/mol
102.7 K	173.3 J/K/mol
104.6 K	175.1 J/K/mol
104.89 K	175.5 J/K/mol
106.5 K	177 J/K/mol
107.15 K	177.7 J/K/mol
108.41 K	178.9 J/K/mol
109.42 K	179.9 J/K/mol
110.33 K	180.8 J/K/mol
111.71 K	182.1 J/K/mol
112.25 K	182.6 J/K/mol
114.01 K	184.4 J/K/mol
114.17 K	184.5 J/K/mol
116.1 K	186.5 J/K/mol
116.31 K	186.8 J/K/mol
118.04 K	189.9 J/K/mol
118.61 K	190.7 J/K/mol
119.97 K	192.6 J/K/mol
120.92 K	192.7 J/K/mol
121.91 K	193.4 J/K/mol
123.24 K	193.9 J/K/mol
123.85 K	194.3 J/K/mol
125.56 K	195.3 J/K/mol
125.8 K	195.5 J/K/mol
127.76 K	196.9 J/K/mol
127.9 K	197 J/K/mol
129.72 K	198.4 J/K/mol
130.24 K	198.8 J/K/mol
131.68 K	200 J/K/mol
132.58 K	200.7 J/K/mol
133.65 K	201.6 J/K/mol
134.93 K	202.7 J/K/mol
135.63 K	203.2 J/K/mol
137.28 K	204.7 J/K/mol
137.6 K	204.9 J/K/mol
139.58 K	206.5 J/K/mol
139.64 K	206.6 J/K/mol
141.56 K	208.3 J/K/mol
142 K	208.7 J/K/mol
143.55 K	210.1 J/K/mol
144.36 K	210.9 J/K/mol
145.53 K	211.9 J/K/mol
146.73 K	213 J/K/mol
147.51 K	213.7 J/K/mol
149.09 K	215.2 J/K/mol
149.5 K	215.5 J/K/mol
151.45 K	217.4 J/K/mol
151.48 K	217.4 J/K/mol
153.46 K	219.3 J/K/mol
153.82 K	219.6 J/K/mol
155.44 K	221.2 J/K/mol
156.18 K	221.9 J/K/mol
157.42 K	223.1 J/K/mol
158.55 K	224.2 J/K/mol
159.41 K	225.1 J/K/mol
160.91 K	226.5 J/K/mol
161.39 K	226.9 J/K/mol
163.28 K	228.8 J/K/mol
163.37 K	228.9 J/K/mol
165.35 K	230.9 J/K/mol
165.64 K	231.1 J/K/mol
167.32 K	232.8 J/K/mol
168 K	233.4 J/K/mol
169.3 K	234.8 J/K/mol

— the NIST ThermoML archive (doi:10.1016/j.tca.2010.08.002)
